Results published in patent US10183030B2, “17α,21-diesters of cortexolone for use in the treatment of tumors” (COSMO TECHNOLOGIES LTD., priority 2014, dated 2019).
pIC50: −log10 of the molar value.

Key:
Assay type in all cases: cell-based
MDA-MB-231 TNBC cells = assay: In vitro proliferation / cytotoxic assay, MDA-MB-231
Method: After 72 hours incubation cell were harvested, lysed and viability determined using the cell titer glow assay for viability.

[1] = test system: PSA secretion from LNCaP prostate cancer cells; assay: PSA secretion from LNCaP cells (Elisa); conditions: Homo sapiens, 48 hours, read-out: IC50, inhibition of PSA secretion
Method: (§1) Prostate-specific antigen, or PSA, is a protein produced by cells of the prostate gland. The PSA test measures the level of PSA in a person's blood. The blood level of PSA is often elevated in men with prostate cancer and it used as surrogate marker to test prostate cancer progression in human population. After the observation that CB-03-10 was able to inhibit in vivo the growth of prostate cancer, the capability of the compound to inhibit in vitro PSA secretion from cancer cells was determined. […] After 48 hours incubation with test compounds, supernatants were harvested and tested with an Elisa assay for PSA and same cells were lysed for cell viability assessment.

LNCaP cells = assay: LNCaP cell viability in the PSA secretion experiment; conditions: Homo sapiens, 48 hours, same cells as PSA assay
Method: as §1, with “population.” for “population. After the observation that CB-03-10 was able to inhibit in vivo the growth of prostate cancer, the capability of the compound to inhibit in vitro PSA secretion from cancer cells was determined.”

SMILES	pIC50 (MDA-MB-231 TNBC cells; Homo sapiens, MDA-MB-231 (ER−PR−GR++), 72 hours, Table VI, unit inferred, read-out: IC50 on breast cancer cells)	maximum inhibition of viability (MDA-MB-231 TNBC cells; MDA-MB-231, at 100 μM)	pIC50 [1]	pIC50 (LNCaP cells)
CC#C[C@]1(O)CC[C@H]2[C@@H]3CCC4=CC(=O)CCC4=C3[C@@H](c3ccc(N(C)C)cc3)C[C@@]21C [RU486, Mifepristone]	3.36	25%		
C[C@]12CCC(=O)C=C1CC[C@@H]1[C@@H]2CC[C@@]2(C)[C@H]1CC[C@]2(O)C(=O)CO [Cortexolone]			3.21	3.82
CNC(=O)c1ccc(N2C(=S)N(c3ccc(C#N)c(C(F)(F)F)c3)C(=O)C2(C)C)cc1F [Enzalutamide]			> 5.52	
